# From patent publication US12291536B2, “Crystal form of Wee1 inhibitor compound and use thereof” (Wuxi Biocity Biopharmaceutics Co., Ltd., priority 2019, dated 2025)
# Experiments:
# [1] = Pharmacokinetic evaluation after single intravenous and single oral administration; type: in vivo, female Balb/c Nude mice; conditions: female, Balb/c Nude; for AUC(0-t): read-out: Area under the drug-time curve AUC0-last; for half-life: read-out: Half-life T1/2 (converted)
# Method: Twelve mice (provided by Lingchang) were randomly divided into two groups, 6 females in each group, and samples were collected by cross-blood sampling.
# In the intravenous group, plasma samples were collected at 9 time points: 5 min, 15 min, 30 min, 1 h, 2 h, 4 h, 6 h, 8 h, and 24 h after the administration. In the oral group, plasma samples were collected at 8 time points: 15 min, 30 min, 1 h, 2 h, 4 h, 6 h, 8 h and 24 h after the administration.
# P-gp (MDR1) = assay: In vitro permeability test in MDR1-MDCK II cells; type: in vitro ADME, canine; conditions: dog
# Description: (§1) MDR1-MDCK II cell authorized by the Piet Borst Laboratory of the Netherlands Cancer Institute was used in the study, the cell is a Madin-Darby canine kidney cell transfected with the human multi-drug resistance gene (MDR1), which can stably express efflux transporter P glycoprotein (P-gp) and therefore is suitable for screening P-gp substrate or inhibitor, and for predicting the permeability of compounds with high efflux barriers such as duodenum, blood-brain barrier, […], and kidney unit. MDR1-MDCK II cells of from passage 5-35 were used for permeability study.
# (§2) MDR1-MDCK II cells were cultured with α-MEM medium (α-Minimum Essential Media) under culture condition of 37±1° C., 5% CO2 and saturated relative humidity. Then, the cells were seeded in a BD Transwell-96 well plate at a seeding density of 2.3×10^5 cells/cm^2, and then the cells were cultured in a carbon dioxide incubator for 4-7 days for transport experiment. The preparation method of its α-MEM medium was as follows:
# (§3) The liquid nutrient base was prepared with powder (α-MEM powder from Gibco, Cat #:11900) dissolved in pure water, and was added with L- (L-glutamine) and NaHCO3. Then 10% FBS (fetal bovine serum), 1% PS (double antibody) and 1% NEAA were added upon use to make a complete medium. […]
# (§4) After all samples were vortexed and centrifuged at 3220 g for 10 min, an appropriate volume of supernatant was transferred to the sample analysis plate. After the plate was sealed, the sample should be stored at 2-8° C. if it was not analyzed immediately, using the LC-MS/MS method for analysis.
# (§5) After the transport experiment was over, the integrity of the MDR1-MDCK II cells was tested by the Lucifer Yellow Rejection Assay. After 30 min of incubation with the Lucifer Yellow solution, the Lucifer Yellow sample was collected, and the 2e plate reader set at 425/528 nm (Excitation/Emission) was used to detect the relative fluorescence intensity (RFU) of fluorescent yellow in the sample.
# P-gp (human MDR1) = assay: In vitro permeability test in MDR1-MDCK II cells; type: in vitro ADME, canine; conditions: dog
# Description: as §1, §2, §3, §4, §5
# Wee1 = molecular target: T1, Wee1 (Homo sapiens, UniProt P30291); assay: In vitro enzymatic inhibitory activity (Eurofins, [γ-33P]-ATP filter assay); type: biochemical; conditions: 10 μM ATP, 40 min, room temperature
# T1 construct: purchased Eurofins
# T1 sequence (P30291 whole entry): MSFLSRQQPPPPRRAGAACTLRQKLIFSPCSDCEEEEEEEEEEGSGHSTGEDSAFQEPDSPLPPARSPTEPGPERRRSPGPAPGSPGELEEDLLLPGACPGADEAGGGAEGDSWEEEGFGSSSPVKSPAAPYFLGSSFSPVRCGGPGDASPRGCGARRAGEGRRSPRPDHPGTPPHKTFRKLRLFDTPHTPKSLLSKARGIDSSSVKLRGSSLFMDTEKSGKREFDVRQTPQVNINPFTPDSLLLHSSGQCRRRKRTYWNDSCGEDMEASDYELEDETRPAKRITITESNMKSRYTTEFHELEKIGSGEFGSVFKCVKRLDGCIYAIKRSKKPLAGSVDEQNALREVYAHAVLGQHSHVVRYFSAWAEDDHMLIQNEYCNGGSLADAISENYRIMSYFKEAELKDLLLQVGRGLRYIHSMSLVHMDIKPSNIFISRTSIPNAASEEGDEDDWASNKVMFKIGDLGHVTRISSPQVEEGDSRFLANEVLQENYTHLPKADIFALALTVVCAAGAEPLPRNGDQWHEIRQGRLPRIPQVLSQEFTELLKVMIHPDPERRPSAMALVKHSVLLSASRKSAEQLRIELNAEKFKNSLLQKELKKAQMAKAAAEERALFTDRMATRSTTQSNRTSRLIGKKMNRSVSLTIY
# Method: The experimental test was carried out in Eurofins, and the experimental results were provided by the company.
# Into the test system were added 20 mM Tris-HCl, pH 8.5, 0.2 mM EDTA, 500 μM polypeptide substrate ([sequence]), 10 mM magnesium acetate and 10 μM [γ-^33P]-ATP (intensity of about 500 cpm/pmol). After addition of Mg^2+ and ATP mixture, the reaction was initiated and incubated at room temperature for 40 min. 3% phosphate buffer was added to stop the reaction.
# 10 μL of reaction solution was taken and filtered on a continuous filter P30, and washed three times with 75 mM phosphate buffer, once with methanol, each washing for 5 min. After drying, the values were read by scintillation counting method.
# [2] = test system: human pancreatic cancer BxPC-3 cell xenograft tumor; assay: In vivo pharmacodynamic study, human pancreatic cancer BxPC-3 subcutaneously transplanted tumor model; design: species or system BALB/c nude mice; conditions: BxPC-3 xenograft, gavage 25 mg/Kg once a day, 27 days
# Method: Experimental procedure: The selected experimental animals were BALB/c nude mice, 6-8 weeks, weighing 18-22 g.
# The 10th generation of BxPC-3 cells were cultured in monolayer in vitro, and the culture conditions were RPMI 1640 medium (Manufacturer: Gibco, Catalog: 22400-089) with 10% fetal bovine serum, 100 U/mL penicillin and 100 μg/mL Streptomycin, 37° C., 5% CO2, 4 passages. The passage method was twice a week with trypsin-EDTA for routine digestion and passage. When the cell saturation reached 80%-90%, the cells were digested with trypsin-EDTA, counted, and resuspended in PBS at a density of 5×10^7 cells/mL. Each animal was inoculated with 0.1 mL (5×10^6 cells) of BxPC-3 cells on the right back. When the average tumor volume reached 153 mm^3, they were randomly grouped according to the tumor volume and administration was started. Gavage dosage: 25 mg/Kg, once a day.
# (§6) The experimental index was to investigate whether the tumor growth was inhibited, alleviated or cured. The diameters of the tumors were measured with a vernier caliper twice a week. The anti-tumor efficacy of the compound was evaluated by TGI (%) or the relative tumor growth rate T/C (%). TGI (%) reflects the tumor growth inhibition rate. […]
# [3] = test system: mouse colon cancer CT26 cell allograft tumor; assay: In vivo anti-tumor efficacy, CT26 mouse colon cancer cell transplanted tumor model; design: species or system BALB/c nude mice; conditions: gavage 30 mg/kg twice a day, 18 days
# Method: Experimental procedure: The selected experimental animals were BALB/c nude mice, 7 weeks, weighing 16-20 g, female.
# Cells: Mouse colon cancer CT26 cells (Cell Bank of Type Culture Collection Committee of Chinese Academy of Sciences) were cultured in monolayer in vitro, and culture condition was RPMI-1640 medium containing 10% fetal bovine serum, in 37° C., 5% CO2 incubator. Trypsin-EDTA was used for routine digestion and passage. When the cells were in the exponential growth phase and the saturation was 80%-90%, the cells were collected, counted, and inoculated. 0.1 mL of DPBS (containing 3×10^5 CT26 cells) was subcutaneously inoculated on the right back of each mouse. When the average tumor volume reached 50-70 mm^3, randomized administration was carried out according to the tumor volume. Gavage dosage: 30 mg/kg, twice a day.
# as §6
# [4] = test system: human colon cancer LoVo cell subcutaneous xenograft tumor; assay: In vivo pharmacodynamic study, human colon cancer LoVo cell subcutaneous xenograft tumor model; design: species or system BALB/c nude mice; conditions: gavage 40 mg/kg twice a day, 16 days
# Method: Experimental method: The selected experimental animals (provided by Shanghai SIPPR-BK Experimental Animal Co., Ltd.) were BALB/c nude mice, 6-8 weeks, weighing 18-22 g.
# Human colon cancer LoVo cells were cultured in monolayer in vitro, and culture conditions were Ham's F-12 medium with 10% fetal bovine serum, 100 U/mL penicillin, 100 μg/mL streptomycin and 2 mM glutamine, 37° C., 5% CO2. Trypsin-EDTA was used for routine digestion and passage, twice a week. When the cell saturation is 80%-90%, the cells were collected, counted, and inoculated. 0.1 mL (10×10^6 cells) of LoVo cells were subcutaneously inoculated on the right back of each nude mouse, and group administration was initiated when the average tumor volume reached 213 mm^3. Dosage for gavage administration was 40 mg/kg, twice a day. The experimental index was to investigate whether the tumor growth was inhibited, alleviated or cured. The diameters of the tumors were measured with a vernier caliper twice a week. The calculation formula for the tumor volume was V=0.5a×b^2, where a and b represent the long diameter and short diameter of the tumor, respectively.
# The anti-tumor efficacy of the compound was evaluated by TGI (%) or the relative tumor growth rate T/C (%). TGI (%) reflects the tumor growth inhibition rate. […]
# [5] = Solid stability test of Crystal Form F under high temperature, high humidity, illumination and accelerated conditions; type: physicochemical
# Method: According to influencing factors and accelerated test conditions, about 5 mg of Crystal Form F of the Compound of Formula (I) was weighed precisely and placed in a dry and clean glass bottle, in duplicate, and spread into a thin layer, as the formal test sample, placed under the influencing factors test conditions (60° C., 92.5% RH (relative humidity)) and accelerated conditions (40° C./75% RH and 60° C./75% RH), with the samples fully exposed. The test system was covered with an aluminum foil paper with small holes. In addition, a small amount of samples were taken and placed in a 40 mL glass sample bottle under the same conditions to determine the crystal state. Sampling and analysis were performed on day 5 days, 10 days, and one month. The samples placed under Illumination (visible light 1200000 Lux, UV 200 W) conditions were fully exposed at room temperature.
# [6] = po, Administration by gavage, 10 mg/kg, mouse plasma
# [7] = Intravenous administration, 1 mg/kg, mouse plasma
# [8] = Illumination (visible light 1200000 Lux, UV 200 W), room temperature
structure (smiles),measurement,setting,value
"CN1CCN(c2ccc(Nc3ncc4c(=O)n5n(c4n3)-c3cccc(n3)[C@](C)(O)CC/C=C\C5)cc2)CC1 (single isomer, unassigned) [Compound of Formula (I)]",bioavailability,"[1]; mouse, plasma, po, Administration by gavage, 10 mg/kg, read-out: Bioavailability F (%)",62.4%
same,AUC(0-t),[1]; [6],6.04 µM·h
same,clearance,"[1]; Intravenous administration, 1 mg/kg, mouse plasma, read-out: Clearance rate",33.5 mL/min/kg
same,half-life,[1]; [7],101 min
same,"Papp A→B at 150 min, 2 μM",P-gp (MDR1); read-out: Penetration rate A to B,4.55 ×10⁻⁶ cm/s
same,"Papp B→A at 150 min, 2 μM",P-gp (MDR1); read-out: Penetration rate B to A,17.4 ×10⁻⁶ cm/s
same,"efflux ratio at 150 min, 2 μM",P-gp (human MDR1),3.82
same,IC50,Wee1,29 nM
same,TGI (%),[2],73.3%
same,TGI (%),[3],93.38%
same,TGI (%),[4],84.74%
"C=CCn1c(=O)c2cnc(Nc3ccc(N4CCN(C)CC4)cc3)nc2n1-c1cccc(C(C)(C)O)n1 [AZD1775, reference compound]",AUC(0-t),[1]; [6],1.2 µM·h
same,half-life,[1]; [7],15.1 min
same,TGI (%),[2],24.3%
same,TGI (%),[3],66.43%
same,TGI (%),[4],26.73%
CN1CCN(c2ccc(Nc3ncc4c(=O)n5n(c4n3)-c3cccc(n3)[C@](C)(O)CC/C=C\C5)cc2)CC1 [Crystal Form F],Content %,[5]; 0 day,99.38%
same,Total impurity %,[5]; 0 day,0.63%
same,Content %,"[5]; 40° C.-75% humidity, 1 month",97.94%
same,Total impurity %,"[5]; 40° C.-75% humidity, 1 month",0.62%
same,Content %,"[5]; 40° C.-75% humidity, 10 day",98.01%
same,Total impurity %,"[5]; 40° C.-75% humidity, 10 day",0.63%
same,Content %,"[5]; 60° C., 5 days",99.39%
same,Total impurity %,"[5]; 60° C., 5 days",0.74%
same,Content %,"[5]; 60° C., 10 days",99.98%
same,Total impurity %,"[5]; 60° C., 10 days",0.84%
same,Content %,"[5]; 60° C.-75% humidity, 1 month",99.46%
same,Total impurity %,"[5]; 60° C.-75% humidity, 1 month",0.75%
same,Content %,"[5]; 60° C.-75% humidity, 10 day",100.43%
same,Total impurity %,"[5]; 60° C.-75% humidity, 10 day",0.69%
same,Content %,"[5]; 92.5% humidity, 5 days",98.72%
same,Total impurity %,"[5]; 92.5% humidity, 5 days",0.61%
same,Content %,"[5]; 92.5% humidity, 10 days",98.38%
same,Total impurity %,"[5]; 92.5% humidity, 10 days",0.64%
same,Content %,[5]; [8],98.58%
same,Total impurity %,[5]; [8],0.67%
same,Content %,[5]; Protection from light,97.77%
same,Total impurity %,[5]; Protection from light,0.61%
same,Crystal form change (physical stability),[5]; one-month solid influencing factor and accelerated test,did not change
